Experimental data reported in US20230136941A1, “IMPROVING PLANT NUTRITIONAL VALUE AND GROWTH THROUGH ENHANCEMENT OF ESSENTIAL AMINO ACID LEVELS” (Board of Trustees of Michigan State University, priority 2020, published 2023).

Legend:
[1] = test system: wild type (Col-0), eva1, ipms1-4 and ipms1-5 seedlings; assay: Primary root elongation of seedlings germinated and grown on medium containing chemical inhibitors (chronic treatment); format: in vivo, Arabidopsis thaliana
Procedure: Except for chronical treatments with specified chemicals, Arabidopsis seeds were stratified and grown on medium containing half-strength Linsmaier and Skoog nutrients (½ LS; Caisson Labs, LSP03), 1% sucrose and 0.4% phytagel (Sigma-Aldrich, P8169) in chambers configured with 21° C. and 16-hour light: 8-hour dark cycle.
In another pharmaceutical examination using AZD-8055, wortmannin and Lat B (FIG. 6A-6G, 6L-6Q), wild type (Col-0), eva1, ipms1-4 and ipms1-5 lines germinated and grew on vertically staged Petri dishes containing Arabidopsis growth medium containing specific chemical inhibitors.

[2] = test system: wild type cotyledon epidermal cells expressing GFP-δTIP; assay: Confocal imaging of vacuole morphology after temporal chemical treatment of wild type seedlings; conditions: 5 μM AZD-8055, 2 or 4 hours
[3] = test system: eva1 cotyledon epidermal cells expressing GFP-δTIP; assay: Confocal imaging of vacuole morphology after temporal chemical treatment of eva1 seedlings; format: cell-based, Arabidopsis thaliana
[4] = test system: wild type (Col-0), ipms1-4 and ipms1-5 seedlings; assay: Root growth after transplant of 10-day old seedlings to Lat B medium; format: in vivo, Arabidopsis thaliana
Procedure: To examine the effect of latrunculin B (Lat B) on root elongation (FIG. 6L-6Q), wild type (Col-0), ipms1-4 and ipms1-5 lines germinated and grew on horizontally staged Petri dishes containing Arabidopsis growth medium (½ LS, 1% sucrose and 0.4% phytagel). 10-day old seedlings were transplanted to Petri dishes containing ½ LS, 1% sucrose and 1% Agar (Acumedia, 7558A) medium containing DMSO or 50 nM Lat B or 100 nM Lat B. Photographs were acquired immediately after the transplant and the Petri dishes were vertically staged in a Percival chamber.
Photographs were also acquired 8 days after the transplant.
Experiments were designed to validate this hypothesis by testing the sensitivity of the ipms1 alleles to the F-actin depolymerizing reagent latrunculin B (Lat B) (Cao et al., 2016). The primary root length of 10-day old ipms1-4 and ipms1-5 was approximately 50% of WT (FIG. 4H-4I). Seedlings of all genotypes were then transferred to medium containing DMSO or 50 nM or 100 nM Lat B in DMSO.

[5] = test system: omr1-11^D cotyledon epidermal cells; assay: ER strand phenotype of omr1-11^D after Torin2 treatment; format: cell-based, Arabidopsis thaliana; conditions: 2-hour Torin2 treatment
[6] = nine-day old seedlings grown on Lat B medium (FIG. 6P-6Q)
[7] = 25 μM Lat B, two-hour treatment

COc1ccc(-c2ccc3c(N4CCOC[C@@H]4C)nc(N4CCOC[C@@H]4C)nc3n2)cc1CO [AZD-8055]
ipms1 primary root elongation ([1]; AZD-8055 higher concentrations (0.4, 0.6 and 1.0 μM), chronic): inhibited | ipms1 primary root elongation ([1]; AZD-8055 lower concentrations (0.1 and 0.2 μM), chronic): promoted | morphology of the central vacuole and trans-vacuolar strands in wild type cells [2]: did not exhibit significant changes | small vacuoles and trans-vacuolar strands in eva1 ([3]; 5 μM AZD-8055, 2 hours): reduced in appearance | vacuole appearance of eva1 cells ([3]; 5 μM AZD-8055, 4 hours): indistinguishable from wild type | vacuolar mutant phenotypes of eva1 (FIG. 6A-6F legend) ([3]; legend prints 5 mM AZD-8055, 2 and 4 hours): rescues vacuolar mutant phenotypes of eva1

C/C1=C/C(=O)O[C@@H]2C[C@@H](CC[C@H](C)/C=C\CC1)O[C@@](O)([C@@H]1CSC(=O)N1)C2 [Lat B, latrunculin B]
promotion of root elongation ([1]; Lat B treatment, chronic, increasing concentrations): not observed | primary root length vs DMSO control, ipms1 mutants [1, 6]: less effects | primary root length vs DMSO control, wild type [1, 6]: significant differences | primary root length of ipms1-4 and ipms1-5 compared to WT ([4]; 50 nM Lat B, 8 days after transplant (DMSO medium: approximately 65%)): 80% | formation of lateral roots in WT seedlings ([4]; 50 nM or 100 nM Lat B, 8 days after transplant): promoted the formation of lateral roots | primary root length of ipms1-4 and ipms1-5 compared to WT ([4]; 100 nM Lat B, 8 days after transplant): not significantly different from WT | small vacuoles in eva1 [3, 7]: persisted | trans-vacuolar strands in eva1 [3, 7]: disappeared

Nc1ccc(-c2ccc3ncc4ccc(=O)n(-c5cccc(C(F)(F)F)c5)c4c3c2)cn1 [Torin2, 9-(6-aminopyridin-3-yl)-1-(3-(trifluoromethyl)phenyl) benzo[h][1,6]naphthyridin-2(1H)-one]
enhanced ER strands in omr1-11^D [5]: recovered | presumably unfused vacuoles and trans-vacuolar strands in eva1 ([3]; 1 μM Torin2, 2 hours): no longer present
